In patent US20240101546A1, “HETEROARYL-ACETYLENES, PHARMACEUTICAL COMPOSITIONS THEREOF, AND THEIR THERAPEUTIC APPLICATIONS” (Eubulus Biotherapeutics Inc., priority 2020, published 2024):

system: hepatocellular carcinoma cell line Hub-7; assay: Cell proliferation assay, Hub-7 (CELL-TITER GLO); format: cell-based; conditions: Hub-7 cells, 24 h incubation, cell viability by CELL-TITER GLO, top concentration 10 μM; read-out: EC50, Inhibition of Hub-7 Cell Proliferation
Experimental: The activity of a compound was determined in a cell proliferation assay using the hepatocellular carcinoma cell line Hub-7. Cells (4,000 cells per well) were seeded in a 96-well tissue culture plate. After incubated overnight, the compound was added at predetermined concentrations, starting with 10 μM and followed by 3-fold serial dilution. After the cells were incubated for 24 h, cell viability was determined using a CELL-TITER GLO® assay. The CELL-TITER GLO® reagent (50 μL) was added to each well and the luminescence was measured by a multimode microplate reader after a brief period of shaking. EC50 values were determined for the compound. The results are summarized in Table 1, wherein A represents a value no greater than 200 nM, B represents a value greater than 200 nM but no greater than 1 μM, C represents a value greater than 1 μM but no greater than 5 μM, and D represents a value greater than 5 μM.

SMILES	EC50 [nM]
C#Cc1nc(NC(=O)NCc2ccc(-c3cccc4c3S(=O)(=O)C=C4)cc2)cs1 [Compound A1, 1-(4-(1,1-Dioxidobenzo[b]thiophen-7-yl)benzyl)-3-(2-ethynylthiazol-4-yl)urea]	200 to 1000
C#Cc1nc(NC(=O)NCc2ccc(-c3cccc4c3S(=O)(=O)CC4O)cc2)cs1 (stereo not shown) [Compound A2, 1-(2-Ethynylthiazol-4-yl)-3-(4-(3-hydroxy-1,1-dioxido-2,3-dihydrobenzo[b]-thiophen-7-yl)benzyl)urea]	1000 to 5000
C#Cc1nc(NC(=O)NCc2ccc(-c3cccc4c3S(=O)(=O)CC4=O)cc2)cs1 [Compound A3, 1-(4-(1,1-Dioxido-3-oxo-2,3-dihydrobenzo[b]thiophen-7-yl)benzyl)-3-(2-ethynyl-thiazol-4-yl)urea]	1000 to 5000
C#Cc1nc(NC(=O)NCc2ccc(-c3cc4ncsc4c4c3CNC4=O)cc2)cs1 [Compound A4, 1-(2-Ethynylthiazol-4-yl)-3-(4-(8-oxo-7,8-dihydro-6H-thiazolo[5,4-e]isoindol-5-yl)benzyl)urea]	200 to 1000
C#Cc1nc(NC(=O)NCc2ccc(-c3cccc(N4CC[C@H](O)C4)c3)cc2)cs1 [Compound A5, (S)-1-(2-Ethynylthiazol-4-yl)-3-((3′-(3-hydroxypyrrolidin-1-yl)-[1,1′-biphenyl]-4-yl)methyl)urea]	200 to 1000
C#Cc1nc(NC(=O)NCc2ccc(-c3cccc4ncsc34)cc2)cs1 [Compound A6, 1-(4-(benzo[d]thiazol-7-yl)benzyl)-3-(2-ethynylthiazol-4-yl)urea]	≤ 200
C#Cc1nc(NC(=O)NCc2ccc(-c3cccc(N4CCCC4)c3)cc2)cs1 [Compound A7, 1-(2-Ethynylthiazol-4-yl)-3-((3′-(pyrrolidin-1-yl)-[1,1′-biphenyl]-4-yl)methyl)urea]	≤ 200
C#Cc1nc(NC(=O)NCc2ccc(-c3ccccc3)cc2)cs1 [Compound A8, 1-([1,1′-Biphenyl]-4-ylmethyl)-3-(2-ethynylthiazol-4-yl)urea]	≤ 200
C#Cc1nc(NC(=O)NCc2ccc(-c3cccc4ncnc(O)c34)cc2)cs1 [Compound A9, 1-(2-Ethynylthiazol-4-yl)-3-(4-(4-hydroxyquinazolin-5-yl)benzyl)urea]	≤ 200
C#Cc1nc(NC(=O)NCc2ccc(-c3cccc(C(N)=O)c3)cc2)cs1 [Compound A10, 4′-((3-(2-Ethynylthiazol-4-yl)ureido)methyl)-[1,1′-biphenyl]-3-carboxamide]	200 to 1000
C#Cc1nc(NC(=O)NCc2ccc(-c3cccc4ncn(C)c(=O)c34)cc2)cs1 [Compound A11, 1-(2-Ethynylthiazol-4-yl)-3-(4-(3-methyl-4-oxo-3,4-dihydroquinazolin-5-yl)-benzyl)urea]	200 to 1000
C#Cc1nc(NC(=O)NCc2ccc(-c3cc4ncsc4cc3F)cc2)cs1 [Compound A12, 1-(2-Ethynylthiazol-4-yl)-3-(4-(6-fluorobenzo[d]thiazol-5-yl)benzyl)urea]	200 to 1000
C#Cc1nc(NC(=O)NCc2ccc(-c3ccccc3S(=O)(=O)NC)cc2)cs1 [Compound A13, 4′-((3-(2-Ethynylthiazol-4-yl)ureido)methyl)-N-methyl-[1,1′-biphenyl]-2-sulfonamide]	200 to 1000
C#Cc1nc(NC(=O)NCc2ccc(-c3cccc(C(=O)NC)c3)cc2)cs1 [Compound A14, 4′-((3-(2-Ethynylthiazol-4-yl)ureido)methyl)-N-methyl-[1,1′-biphenyl]-3-carboxamide]	200 to 1000
C#Cc1nc(NC(=O)NCc2ccc(-c3c(C)ccc4c3cnn4C)cc2)cs1 [Compound A15, 1-(4-(1,5-Dimethyl-1H-indazol-4-yl)benzyl)-3-(2-ethynylthiazol-4-yl)urea]	≤ 200
C#Cc1nc(NC(=O)NCc2ccc(-c3cccc4c3cnn4C)cc2)cs1 [Compound A16, 1-(2-Ethynylthiazol-4-yl)-3-(4-(1-methyl-1H-indazol-4-yl)benzyl)urea]	≤ 200
